Test results taken from ChEMBL document CHEMBL4118154, “Discovery of evocalcet, a next-generation calcium-sensing receptor agonist for the treatment of hyperparathyroidism” (Bioorg Med Chem Lett, 2018).
The source made the active and inactive calls. The rule behind the calls is not given here.

Experiments:
[1] = biological target: T1, Extracellular calcium-sensing receptor (Homo sapiens) (UniProt P41180); assay: Binding affinity to human CaSR expressed in HEK293 cells after 30 mins in presence of NPS 568 by liquid scintillation counting method; format: cell-based
T1 sequence (whole entry): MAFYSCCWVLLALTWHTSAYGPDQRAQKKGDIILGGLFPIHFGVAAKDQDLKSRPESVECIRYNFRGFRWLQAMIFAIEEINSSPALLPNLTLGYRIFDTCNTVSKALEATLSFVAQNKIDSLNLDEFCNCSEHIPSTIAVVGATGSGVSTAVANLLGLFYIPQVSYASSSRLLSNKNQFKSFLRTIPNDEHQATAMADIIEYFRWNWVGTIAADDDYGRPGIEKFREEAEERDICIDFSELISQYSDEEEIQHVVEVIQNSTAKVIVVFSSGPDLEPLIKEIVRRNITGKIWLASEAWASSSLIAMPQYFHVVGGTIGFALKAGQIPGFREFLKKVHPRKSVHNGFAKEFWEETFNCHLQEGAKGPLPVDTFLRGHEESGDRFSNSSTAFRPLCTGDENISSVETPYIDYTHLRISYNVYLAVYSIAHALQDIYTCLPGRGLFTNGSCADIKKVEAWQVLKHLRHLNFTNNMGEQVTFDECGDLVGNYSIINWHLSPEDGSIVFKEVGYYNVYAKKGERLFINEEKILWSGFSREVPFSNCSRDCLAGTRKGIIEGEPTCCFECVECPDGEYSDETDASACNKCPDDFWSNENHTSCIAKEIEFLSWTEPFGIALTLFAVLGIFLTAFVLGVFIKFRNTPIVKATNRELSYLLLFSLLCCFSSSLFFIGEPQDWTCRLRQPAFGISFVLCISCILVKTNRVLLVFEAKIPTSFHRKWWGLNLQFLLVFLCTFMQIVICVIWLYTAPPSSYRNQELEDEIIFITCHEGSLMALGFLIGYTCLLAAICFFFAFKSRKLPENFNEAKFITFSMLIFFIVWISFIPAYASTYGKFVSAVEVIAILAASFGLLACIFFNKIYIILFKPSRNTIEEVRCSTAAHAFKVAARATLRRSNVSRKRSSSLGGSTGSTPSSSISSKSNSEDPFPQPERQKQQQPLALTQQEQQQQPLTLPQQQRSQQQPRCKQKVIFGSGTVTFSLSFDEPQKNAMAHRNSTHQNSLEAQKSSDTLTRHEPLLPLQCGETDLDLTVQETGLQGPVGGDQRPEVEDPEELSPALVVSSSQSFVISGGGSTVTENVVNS

[2] = Total clearance in rat at 0.3 mg/kg, iv; format: ADME, organism-based; conditions: in vivo
[3] = Initial plasma concentration in monkey at 0.3 mg/kg, iv; format: ADME, organism-based, Macaca mulatta; conditions: rhesus monkey
[4] = Cmax in monkey at 1 mg/kg, po; format: ADME, organism-based, Macaca mulatta; parameters: dose 1 mg/kg, route oral; conditions: rhesus monkey, in vivo
[5] = biological target: T2, CYP2B6 (Homo sapiens, UniProt P20813); assay: Inhibition of CYP2B6 (unknown origin); format: ADME
T2 sequence (P20813 whole entry): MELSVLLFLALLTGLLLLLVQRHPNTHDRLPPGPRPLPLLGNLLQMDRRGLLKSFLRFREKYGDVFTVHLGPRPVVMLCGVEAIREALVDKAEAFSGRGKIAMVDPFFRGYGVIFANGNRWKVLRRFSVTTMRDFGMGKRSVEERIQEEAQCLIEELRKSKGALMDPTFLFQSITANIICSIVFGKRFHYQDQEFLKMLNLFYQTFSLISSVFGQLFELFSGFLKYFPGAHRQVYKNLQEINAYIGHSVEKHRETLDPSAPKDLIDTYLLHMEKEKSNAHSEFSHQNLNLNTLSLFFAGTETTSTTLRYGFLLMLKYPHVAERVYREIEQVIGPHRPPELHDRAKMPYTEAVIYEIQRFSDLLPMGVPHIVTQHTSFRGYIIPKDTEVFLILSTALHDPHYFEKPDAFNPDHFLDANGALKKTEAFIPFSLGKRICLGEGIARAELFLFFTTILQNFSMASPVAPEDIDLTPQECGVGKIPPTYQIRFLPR

[6] = Intrinsic clearance in rat liver microsomes assessed per protein; format: ADME, microsome; conditions: read-out: CLH
[7] = Cmax in rat at 1 mg/kg, po; format: ADME, organism-based; parameters: dose 1 mg/kg, route oral; conditions: in vivo
[8] = Intrinsic clearance in human liver microsomes assessed per protein; format: ADME, microsome; conditions: read-out: CLH
[9] = biological target: CYP2C9 (Homo sapiens, UniProt P11712); assay: Inhibition of CYP2C9 (unknown origin); format: ADME
Chain of CYP2C9 (P11712 whole entry): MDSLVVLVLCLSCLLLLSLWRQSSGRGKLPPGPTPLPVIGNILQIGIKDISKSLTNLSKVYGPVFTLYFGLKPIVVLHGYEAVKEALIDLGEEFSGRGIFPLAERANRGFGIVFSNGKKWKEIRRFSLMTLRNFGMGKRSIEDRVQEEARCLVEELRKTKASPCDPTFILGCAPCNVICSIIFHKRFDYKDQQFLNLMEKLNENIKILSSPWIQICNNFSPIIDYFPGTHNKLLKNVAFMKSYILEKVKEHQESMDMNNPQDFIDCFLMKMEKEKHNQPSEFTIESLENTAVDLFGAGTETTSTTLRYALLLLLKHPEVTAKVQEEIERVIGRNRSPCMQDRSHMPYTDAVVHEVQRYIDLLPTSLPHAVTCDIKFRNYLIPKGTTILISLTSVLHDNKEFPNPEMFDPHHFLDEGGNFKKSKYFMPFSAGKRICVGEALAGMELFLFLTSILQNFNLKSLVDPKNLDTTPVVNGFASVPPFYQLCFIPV

[10] = AUC (0 to infinity) in rat at 0.3 mg/kg, iv; format: ADME, organism-based; parameters: dose 0.3 mg/kg, route intravenous, time infinity; conditions: in vivo
[11] = Half life in monkey at 1 mg/kg, po; format: ADME, organism-based, Macaca mulatta; conditions: rhesus monkey, in vivo
[12] = biological target: T3, CYP1A2 (Homo sapiens, UniProt P05177); assay: Inhibition of CYP1A2 (unknown origin); format: ADME
T3 sequence (P05177 whole entry): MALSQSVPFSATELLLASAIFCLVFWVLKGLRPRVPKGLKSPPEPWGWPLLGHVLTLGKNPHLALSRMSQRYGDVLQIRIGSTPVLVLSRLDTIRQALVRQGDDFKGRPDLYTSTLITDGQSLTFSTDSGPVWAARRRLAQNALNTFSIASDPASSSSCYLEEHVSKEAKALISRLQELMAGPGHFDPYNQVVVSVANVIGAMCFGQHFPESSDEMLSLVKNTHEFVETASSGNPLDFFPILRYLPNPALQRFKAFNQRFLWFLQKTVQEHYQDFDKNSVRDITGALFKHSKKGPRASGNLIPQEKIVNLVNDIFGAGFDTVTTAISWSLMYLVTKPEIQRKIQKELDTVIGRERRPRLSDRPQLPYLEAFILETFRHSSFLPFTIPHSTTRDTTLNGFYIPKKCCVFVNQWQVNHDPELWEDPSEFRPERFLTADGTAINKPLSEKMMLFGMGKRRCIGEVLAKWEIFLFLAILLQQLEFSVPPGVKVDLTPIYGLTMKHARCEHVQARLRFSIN

[13] = Oral bioavailability in monkey at 1 mg/kg; format: ADME, organism-based, Macaca mulatta; conditions: rhesus monkey, in vivo
[14] = AUC (0 to infinity) in rat at 1 mg/kg, po; format: ADME, organism-based; parameters: dose 1 mg/kg, route oral, time infinity; conditions: in vivo
[15] = Initial plasma concentration in rat at 0.3 mg/kg, iv; format: ADME, organism-based

## C[C@@H](N[C@H]1CCN(c2ccc(CC(=O)O)cc2)C1)c1cccc2ccccc12.Cl.Cl
[1]
  Activity: inactive
[2]
  clearance: 1.67 mL/min/kg
[3]
  C0: 1630 ng/mL
[4]
  Cmax: 746 ng/mL
[5]
  IC50: > 50 µM
[6]
  microsomal CLint: 34 µL/min/mg
[7]
  Cmax: 2190 ng/mL
[8]
  microsomal CLint: 68 µL/min/mg
[9]
  IC50: > 50 µM
[10]
  AUC(0-inf): 3010 ng·h/mL
[11]
  half-life: 8.94 h
[12]
  IC50: > 50 µM
[13]
  bioavailability: 55.8%
[14]
  AUC(0-inf): 8440 ng·h/mL
[15]
  C0: 1080 ng/mL
